Results taken from publication PMC10818749, “Toxicity Studies of Cardiac-Targeting Peptide Reveal a Robust Safety Profile” (Pharmaceutics, 2024).

What was measured:
[1] = biological target: T1, HEK-Nav1.5 (Late, Antagonist) (Homo sapiens, UniProt Q14524); format: cell-based; settings: antagonist mode; Qube APC (1 conc.); late current, 50nM ATXII; read-out: Estimated IC50 (reference compound)
T1 construct: CYL7004QB2DR (late); host or cells: HEK

CHO-KCNQ1/minK = CHO-KCNQ1/minK (Homo sapiens, UniProt P15382+P51787); settings: read-out: Estimated IC50 (reference compound); antagonist mode; Qube APC (1 conc.)
HEK-Kv4.3/KChIP2 = HEK-Kv4.3/KChIP2 (Homo sapiens, UniProt Q9NS61+Q9UK17); assay: cell-based
HEK-Kv4.3/KChIP2, sequence (Q9UK17 whole entry): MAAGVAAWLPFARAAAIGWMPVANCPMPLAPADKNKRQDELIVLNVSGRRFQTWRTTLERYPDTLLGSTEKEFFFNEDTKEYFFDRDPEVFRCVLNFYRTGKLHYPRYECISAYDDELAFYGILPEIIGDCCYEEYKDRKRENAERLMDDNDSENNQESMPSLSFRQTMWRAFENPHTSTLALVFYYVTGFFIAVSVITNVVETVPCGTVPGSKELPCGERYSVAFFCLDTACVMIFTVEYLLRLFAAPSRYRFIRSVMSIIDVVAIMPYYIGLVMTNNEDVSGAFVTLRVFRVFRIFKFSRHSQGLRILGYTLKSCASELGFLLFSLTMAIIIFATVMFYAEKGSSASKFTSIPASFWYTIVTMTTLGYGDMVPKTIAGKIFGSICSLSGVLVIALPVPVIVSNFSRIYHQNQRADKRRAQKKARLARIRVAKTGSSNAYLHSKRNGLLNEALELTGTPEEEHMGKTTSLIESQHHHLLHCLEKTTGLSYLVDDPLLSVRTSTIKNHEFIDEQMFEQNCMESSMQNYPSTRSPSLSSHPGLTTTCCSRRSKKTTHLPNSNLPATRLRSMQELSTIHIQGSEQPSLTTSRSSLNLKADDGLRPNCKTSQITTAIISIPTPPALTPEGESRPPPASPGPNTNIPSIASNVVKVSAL
HEK-Kv4.3/KChIP2, sequence (Q9NS61 whole entry partner): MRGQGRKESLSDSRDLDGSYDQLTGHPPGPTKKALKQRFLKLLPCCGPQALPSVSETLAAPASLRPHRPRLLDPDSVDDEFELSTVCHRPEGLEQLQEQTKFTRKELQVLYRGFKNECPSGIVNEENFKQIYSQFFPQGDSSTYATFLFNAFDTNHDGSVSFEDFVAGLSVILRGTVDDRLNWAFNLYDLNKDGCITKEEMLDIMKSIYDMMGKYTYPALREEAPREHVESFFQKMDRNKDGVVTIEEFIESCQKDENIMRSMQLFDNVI

[2] = tested on: leukemia and peripheral blood monocyte cell line; set-up: method as in PMID 16137634; settings: 5 and 10 µM; ref [51]; cited from earlier work
cancer cell lines = settings: ref Saar and colleagues; cited from earlier work
HEK-Kir2.1 = biological target: T2, HEK-Kir2.1 (Homo sapiens, UniProt P63252); format: cell-based; settings: read-out: Estimated IC50 (reference compound)
T2 construct: host or cells: HEK
T2 sequence (P63252 whole entry): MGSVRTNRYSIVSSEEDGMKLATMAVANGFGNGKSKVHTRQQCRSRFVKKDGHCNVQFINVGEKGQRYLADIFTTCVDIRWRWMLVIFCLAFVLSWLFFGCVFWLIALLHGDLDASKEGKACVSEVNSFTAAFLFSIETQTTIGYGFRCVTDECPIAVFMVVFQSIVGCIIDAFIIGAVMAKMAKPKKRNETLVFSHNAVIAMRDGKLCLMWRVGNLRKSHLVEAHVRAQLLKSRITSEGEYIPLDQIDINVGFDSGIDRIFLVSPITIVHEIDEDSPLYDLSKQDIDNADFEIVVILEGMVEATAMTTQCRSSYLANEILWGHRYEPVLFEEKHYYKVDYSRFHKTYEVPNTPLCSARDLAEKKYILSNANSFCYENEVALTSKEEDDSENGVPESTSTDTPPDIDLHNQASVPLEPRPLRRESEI

T1 sequence (Q14524 whole entry): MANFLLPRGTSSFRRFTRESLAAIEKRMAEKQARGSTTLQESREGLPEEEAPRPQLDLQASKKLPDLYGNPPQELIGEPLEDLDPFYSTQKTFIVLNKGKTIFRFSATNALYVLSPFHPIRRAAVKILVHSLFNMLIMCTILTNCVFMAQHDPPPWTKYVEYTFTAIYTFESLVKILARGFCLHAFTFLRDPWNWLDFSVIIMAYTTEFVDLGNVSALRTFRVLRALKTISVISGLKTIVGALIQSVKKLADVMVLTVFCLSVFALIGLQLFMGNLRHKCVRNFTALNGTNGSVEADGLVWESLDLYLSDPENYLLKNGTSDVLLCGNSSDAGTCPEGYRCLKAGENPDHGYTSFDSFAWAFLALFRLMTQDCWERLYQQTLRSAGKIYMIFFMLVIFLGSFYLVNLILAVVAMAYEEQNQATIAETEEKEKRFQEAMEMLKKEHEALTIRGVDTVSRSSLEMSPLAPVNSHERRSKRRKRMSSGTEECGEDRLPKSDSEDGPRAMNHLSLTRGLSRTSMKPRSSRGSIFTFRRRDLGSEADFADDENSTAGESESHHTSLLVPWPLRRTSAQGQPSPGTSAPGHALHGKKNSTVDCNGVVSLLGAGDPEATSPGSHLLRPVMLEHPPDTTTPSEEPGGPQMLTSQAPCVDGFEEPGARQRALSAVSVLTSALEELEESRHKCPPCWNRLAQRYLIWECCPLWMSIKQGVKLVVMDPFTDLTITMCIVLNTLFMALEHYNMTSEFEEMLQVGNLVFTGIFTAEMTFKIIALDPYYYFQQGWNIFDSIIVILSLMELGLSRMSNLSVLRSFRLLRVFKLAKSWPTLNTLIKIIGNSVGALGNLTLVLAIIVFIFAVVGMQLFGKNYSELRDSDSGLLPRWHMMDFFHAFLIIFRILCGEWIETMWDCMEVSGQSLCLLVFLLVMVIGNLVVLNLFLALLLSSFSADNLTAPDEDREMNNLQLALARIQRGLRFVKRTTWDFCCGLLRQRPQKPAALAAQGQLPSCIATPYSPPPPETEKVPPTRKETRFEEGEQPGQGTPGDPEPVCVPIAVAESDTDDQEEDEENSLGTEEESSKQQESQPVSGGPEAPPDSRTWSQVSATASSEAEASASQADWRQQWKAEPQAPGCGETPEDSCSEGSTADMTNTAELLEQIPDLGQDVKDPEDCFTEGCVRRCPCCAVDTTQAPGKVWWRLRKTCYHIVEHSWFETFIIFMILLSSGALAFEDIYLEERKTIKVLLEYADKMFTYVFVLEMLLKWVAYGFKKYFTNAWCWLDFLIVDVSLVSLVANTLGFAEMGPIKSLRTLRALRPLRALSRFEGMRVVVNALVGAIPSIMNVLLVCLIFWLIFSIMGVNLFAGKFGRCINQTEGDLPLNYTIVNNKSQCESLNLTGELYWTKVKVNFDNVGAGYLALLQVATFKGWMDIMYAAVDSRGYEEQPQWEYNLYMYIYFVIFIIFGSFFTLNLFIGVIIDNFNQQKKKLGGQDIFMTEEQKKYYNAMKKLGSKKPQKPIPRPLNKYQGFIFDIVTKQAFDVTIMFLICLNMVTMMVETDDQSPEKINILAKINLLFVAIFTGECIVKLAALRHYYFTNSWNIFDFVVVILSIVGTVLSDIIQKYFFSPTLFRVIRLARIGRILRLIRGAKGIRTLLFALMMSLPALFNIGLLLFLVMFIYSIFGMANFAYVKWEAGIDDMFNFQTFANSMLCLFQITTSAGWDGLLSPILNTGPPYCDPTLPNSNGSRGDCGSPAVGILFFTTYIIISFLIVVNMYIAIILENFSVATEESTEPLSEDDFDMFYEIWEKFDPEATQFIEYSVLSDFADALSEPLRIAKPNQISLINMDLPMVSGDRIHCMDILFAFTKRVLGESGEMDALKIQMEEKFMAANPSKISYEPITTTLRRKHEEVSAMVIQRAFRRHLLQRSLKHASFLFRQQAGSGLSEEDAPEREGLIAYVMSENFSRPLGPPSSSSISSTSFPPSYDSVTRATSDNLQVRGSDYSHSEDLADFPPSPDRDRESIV

Compound: COc1ccccc1OCC(O)CN1CCN(CC(=O)Nc2c(C)cccc2C)CC1 (stereo not shown) [Ranolazine, reference compound]
- IC50 [1]: 72.5 µM

Compound: CCS(=O)(=O)N(C)[C@H]1c2cc(C#N)ccc2OC(C)(C)[C@@H]1O (racemic) [Chromanol 293B, reference compound]
- IC50 (CHO-KCNQ1/minK): 21.5 µM

Compound: O=C(NCC1CCCCN1)c1cc(OCC(F)(F)F)ccc1OCC(F)(F)F (stereo not shown) [Flecainide]
- IC50 (HEK-Kv4.3/KChIP2): 12.5 µM

Compound: transportan 10
- cytokine release [2]: no increase in cytokine levels
- membrane leakage of lactate dehydrogenase (cancer cell lines): significant leakage

Compound: pVEC: well-characterized, non-cell-specific CPP (TLLIILRRRIRKQAHAHS; UniProt P55284 615-632, looked up, fragment)
- membrane leakage of lactate dehydrogenase (cancer cell lines): minimal membrane leakage of lactate dehydrogenase

Compound: [Ba+2].[Cl-].[Cl-] [Barium Chloride, reference compound]
- IC50 (HEK-Kir2.1): 17.7 µM
